Assay results from patent US6762174B1 (priority 1998, dated 2004).
Values joined by “and” are separate entries in the source; they are usually repeats but may differ in a detail not shown here. Equal values may be shown once. Read-outs that look alike come from different tables or passages of the source. Marks after values point to notes of the source that are not given here.

What was measured:
[1] = Paclitaxel toxicity, first study: body weight and mortality; assay type: in vivo, female non-tumor-bearing athymic (NCr-nu) mice; conditions: BT 0 mg
Experimental: The effect of combining BT with paclitaxel (PAC, or TAXOL™) on the toxicity of paclitaxel was investigated. In a first study, groups of 10 female non-tumor-bearing athymic (NCr-nu) mice were administered paclitaxel i.v. at doses of 50 and 30 mg/kg/dose on a qld×5 schedule, which means once each day for five days. Paclitaxel (PAC) was in 12.5% cremophor/12.5% ethanol/75% saline alone, or in combination with 30 mg/kg BT (first dissolved in saline) and delivered as a single i.v. injection (0.1 cc/10 gm body weight). BT was also administered on a qld×5 schedule. Body weights were measured twice a week and survival data was recorded daily. The study was terminated on day 21.
Weight loss values reflect the lowest recorded weight, which was on day 7 for all groups. Importantly, there were fewer deaths when BT was coadministered with either 30 mg or 50 mg paclitaxel.
For the group receiving 50 mg paclitaxel, the survival difference was statistically significant (log rank=6.41, p=0.0113). There were 9 deaths on day 21 with 50 mg PAC alone, but only 2 deaths when 30 mg BT was administered with 50 mg PAC. When BT was coadministered with 30 mg PAC there was only 1 death on day 21, which was due not to toxicity, but to a technician error. By contrast, there were 2 toxic deaths with 30 mg PAC alone.

[2] = Taxol 40 mg/kg IV
[3] = test system: human hematopoietic progenitor cells (CD34+ cells); test: Blood cell stimulation: CD34+ suspension culture, lineage marker ELISA; assay type: cell-based
Experimental: A 96-well-based suspension culture system (Warren et al, Stem Cells 13:167 (1995) for human hematopoietic progenitor cells was used to monitor the commitment and differentiation of CD34+ cells in vitro. Expression of maturation and lineage markers on the cells in culture were measured by ELISA. […] A combination of growth factors was added that stimulates the expression of the appropriate lineage markers. The culture consisted of: IMDM plus 15% FBS, 0.5 ng/ml IL-3, 20 ng/ml SCF, 1 unit/ml EPO, 1 ng/ml GCSF and the indicated concentrations of test compounds. The cells were then fixed with a glutaraldehyde-paraformaldehyde mixture, attaching the cells firmly to the plastic. An ELISA was performed (Warren et al, Stem Cells 13:167 (1995)), using appropriate primary antibodies directed against cell surface markers. The expression of three different lineage markers was measured: CD14 (monocyte), CD15 (neutrophil), and glycophorin A (erythroid).

[4] = test system: anti-Pn14 antibodies (Pn14-Tetanus Toxin antigen); design: species or system BALB/c female mice; conditions: mouse, in vivo
[5] = test system: Hybridoma cells (ATCC #CRL-8014, OKT-8); test: Production of monoclonal antibodies from hybridomas (sandwich ELISA); assay type: cell-based; conditions: 200 ρg/ml vs control
Experimental: Hybridoma cells (ATCC #CRL-8014, OKT-8, secreting an IgG2 anti-human T-cell subset antibody) were growth with or without N-carbobenzoxy-β-alanyl-taurine zinc salt in T25 culture flasks. Cells were inoculated at a density of 10,000 cells/ml and maintained below 500,000 cells/ml in 5 mls of protein-free media containing HyQ-PF-MAB from Hyclone. Aliquots were assayed for Mab production by a sandwich ELISA. Aliquots were diluted to be within the standard range and added to plates precoated with goat anti-mouse IgG by incubating two hours at room temperature. Wells were washed and reacted with diluted supernatants, then washed and detected with peroxidase labeled anti-mouse antibodies.

[6] = test system: delayed type hypersensitivity (DTH) response to oxazalone (OX); design: species or system mice; conditions: mouse, in vivo
[7] = Study 2: 1 ug/ml, 1700 cells per well

## CC(=O)O[C@H]1C(=O)[C@@]2(C)[C@H]([C@H](OC(=O)c3ccccc3)[C@]3(O)C[C@H](OC(=O)[C@H](O)[C@@H](NC(=O)c4ccccc4)c4ccccc4)C(C)=C1C3(C)C)[C@]1(OC(C)=O)CO[C@@H]1C[C@@H]2O [PAC, paclitaxel]
[1]; PAC 30 mg, Day 1
  deaths: 0
  mean weight: 19 gm
[1]; PAC 30 mg, Day 7
  % weight change: −26.3%
  deaths: 1
  mean weight: 14 gm
[1]; PAC 30 mg, Day 10
  % weight change: −21.1%
  deaths: 2
  mean weight: 15 gm
[1]; PAC 30 mg, Day 14
  % weight change: −5.3%
  deaths: 2
  mean weight: 18 gm
[1]; PAC 30 mg, Day 21
  % weight change: +21.1%
  deaths: 2
  mean weight: 23 gm
[1]; PAC 50 mg, Day 1
  deaths (cummul.): 0
  mean weight: 19 gm
[1]; PAC 50 mg, Day 7
  % weight change: −31.6%
  deaths (cummul.): 1
  mean weight: 13 gm
[1]; PAC 50 mg, Day 10
  % weight change: −36.8%
  deaths (cummul.): 9
  mean weight: 12 gm
[1]; PAC 50 mg, Day 14
  % weight change: −26.3%
  deaths (cummul.): 9
  mean weight: 14 gm
[1]; PAC 50 mg, Day 21
  % weight change: +10.5%
  deaths (cummul.): 9
  mean weight: 21 gm
[2]; day 1
  Percent Body Weight Loss From Day 0: 3.8%
[2]; day 5
  Percent Body Weight Loss From Day 0: 10.7%
[2]; day 6
  Percent Body Weight Loss From Day 0: 11.0%
[2]; day 7
  Percent Body Weight Loss From Day 0: 15.2%
[2]; day 8
  Percent Body Weight Loss From Day 0: 17.2%
[2]; day 9
  Percent Body Weight Loss From Day 0: 17.5%
[2]; day 10
  Percent Body Weight Loss From Day 0: 14.6%
[2]; day 11
  Percent Body Weight Loss From Day 0: 11.8%
[2]; day 12
  Percent Body Weight Loss From Day 0: 10.4%
[2]; day 13
  Percent Body Weight Loss From Day 0: 7.8%
[2]; day 21
  Percent Body Weight Loss From Day 0: −1.2%

## O=C(CCNC(=O)OCc1ccccc1)NCCOP(=O)(O)O [Taurox-BOP, N-carboxybenzoxy-β-alanyl-ethanolamine phosphate]
[3]; Study 1: 1 ng/ml compound
  Percent difference (relative to control), monocytes: 18%
  Percent difference (relative to control), neutrophils: 21%
  Percent difference (relative to control), red blood cells: 0%
[3]; [7]
  Percent difference (relative to control), CD34 cells: 33%
  Percent difference (relative to control), RBC: 55%
  Percent difference (relative to control), monocytes: 9%
[4]
  Mean Change in O.D. from pretest, Day 4: 0
  Mean Change in O.D. from pretest, Day 14: 366
[4]; ip
  Mean Change in O.D. from pretest, Day 14: 877 and 515

## NCCC(=O)NCCS(=O)(=O)O [Taurox-S, β-alanyl-taurine]
[3]; Study 1: 1 ng/ml compound
  Percent difference (relative to control), monocytes: 47%
  Percent difference (relative to control), neutrophils: 55%
  Percent difference (relative to control), red blood cells: 50%
[4]
  Mean Change in O.D. from pre-boost 10 days after boost with UNCONJUGATED polysaccharide: 204
  Mean Change in O.D. from pretest, Day 4: 2.9
  Mean Change in O.D. from pretest, Day 14: 697
[4]; ip
  Mean Change in O.D. from pretest, Day 14: 681 and 671

## N-carbobenzoxy-β-alanyl-taurine zinc salt
[5]
  Increase of IgG μg/ml: 316%
  Increase of IgG ρg/cell: 93%
[6]
  Major DTH at 24 hrs: 50*
  Major DTH at 48 hrs.: 50
  Major DTH at either 24 or 48 hrs.: 60
  Moderate DTH at 24 hrs: 70
  response rate, moderate DTH at 24 hrs: eight of ten
  total treated animals with major immune response: 14
  total treated animals with major response: 21
[6]; iv
  Major DTH at 24 hrs: 20 and 10
  Major DTH at 48 hrs.: 20 and 10
